Assay results as given in patent US20140187548A1, “6 SUBSTITUTED IMIDAZOPYRAZINES FOR USE AS MPS-1 AND TKK INHIBITORS IN THE TREATMENT OF HYPERPROLIFERATIVE DISORDERS” (BAYER INTELLECTUAL PROPERTY GMBH, priority 2010, published 2014).

These compounds were tested against T1, human kinase Mps-1 (Homo sapiens, UniProt P33981) (assay: Mps-1 kinase assay (TR-FRET)). Settings: N-terminally GST-tagged human full length recombinant Mps-1; 10 μM ATP; 1 μM peptide substrate; 15 min pre-incubation; 60 min at 22° C.
T1 construct: N-terminally GST-tagged human full length recombinant Mps-1 kinase; GST (N); purchased Invitrogen, Karslruhe, Germany PV4071
T1 sequence (P33981 1-857): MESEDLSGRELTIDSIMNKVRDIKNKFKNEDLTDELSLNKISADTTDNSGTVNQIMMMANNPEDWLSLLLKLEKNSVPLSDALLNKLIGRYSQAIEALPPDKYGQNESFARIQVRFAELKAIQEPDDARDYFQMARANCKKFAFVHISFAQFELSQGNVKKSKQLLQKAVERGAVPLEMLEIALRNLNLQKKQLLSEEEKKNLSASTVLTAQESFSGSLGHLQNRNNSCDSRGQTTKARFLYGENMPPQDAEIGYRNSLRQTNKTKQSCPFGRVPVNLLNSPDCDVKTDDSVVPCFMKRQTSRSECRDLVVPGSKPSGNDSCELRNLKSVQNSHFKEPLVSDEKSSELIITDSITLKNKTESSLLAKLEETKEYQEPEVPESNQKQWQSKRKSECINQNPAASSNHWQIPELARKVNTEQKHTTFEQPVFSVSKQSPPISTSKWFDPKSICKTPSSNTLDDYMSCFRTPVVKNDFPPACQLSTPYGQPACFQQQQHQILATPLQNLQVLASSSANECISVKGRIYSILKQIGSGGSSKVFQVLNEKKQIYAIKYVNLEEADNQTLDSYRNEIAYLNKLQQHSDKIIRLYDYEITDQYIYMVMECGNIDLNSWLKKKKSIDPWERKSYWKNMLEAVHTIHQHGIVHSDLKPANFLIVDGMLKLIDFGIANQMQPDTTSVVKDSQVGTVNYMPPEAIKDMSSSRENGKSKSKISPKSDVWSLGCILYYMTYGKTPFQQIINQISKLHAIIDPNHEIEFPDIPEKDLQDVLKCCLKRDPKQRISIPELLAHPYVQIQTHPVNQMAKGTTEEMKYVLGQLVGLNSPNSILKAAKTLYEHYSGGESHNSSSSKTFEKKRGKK
Type: biochemical
In short: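 N-terminally GST-tagged full-length recombinant human Mps-1, about 1 nM final, phosphorylates a biotinylated peptide. Product detected by TR-FRET from Eu-anti-phospho-Ser/Thr antibody to streptavidin-XLent after 1 h at 22° C.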

First: CC(=O)NCCNc1nc(-c2ccccc2)cn2c(-c3ccc(C(=O)NC4CC4)cc3)cnc12 [Example 2-19, 4-(8-{[2-(acetylamino)ethyl]amino}-6-phenylimidazo[1,2-a]pyrazin-3-yl)-N-cyclopropyl-benzamide]
Second: NC(=O)CNc1nc(-c2ccccc2)cn2c(-c3ccc(C(=O)NC4CC4)cc3)cnc12 [Example 2-30, 4-{8-[(2-amino-2-oxoethyl)amino]-6-phenylimidazo[1,2-a]pyrazin-3-yl}-N-cyclopropyl-benzamide]
The IC50 of the first is 2.3-fold lower: 8.1 nM for the first, 19 nM for the second.

Going from `COc1cc(OC)cc(-c2cn3c(-c4ccc(C(=O)NC5CC5)cc4)cnc3c(NCC(C)C)n2)c1` [Example 1-21, N-cyclopropyl-4-{6-(3,5-dimethoxyphenyl)-8-[(2-methylpropyl)amino]imidazo[1,2-a]pyrazin-3-yl}benzamide] to `CC(C)CNc1nc(-c2ccc(OCC(C)C)cc2)cn2c(-c3ccc(C(=O)NC4CC4)cc3)cnc12` [Example 1-81, N-cyclopropyl-4-{6-[4-(2-methylpropoxy)phenyl]-8-[(2-methylpropyl)amino]imidazo[1,2-a]pyrazin-3-yl}benzamide], the IC50 rises from 19 nM to 347 nM (18-fold). The first is the more potent here.

Compared with `CN(C)CCCNc1nc(-c2ccccc2)cn2c(-c3ccc(C(=O)NC4CC4)cc3)cnc12` [Example 2-18, N-cyclopropyl-4-(8-{[3-(dimethylamino)propyl]amino}-6-phenylimidazo[1,2-a]pyrazin-3-yl)benzamide], `CC(C)CCNc1nc(-c2ccccc2)cn2c(-c3ccc(C(=O)NC4CC4)cc3)cnc12` [Example 2-4, N-cyclopropyl-4-{8-[(3-methylbutyl)amino]-6-phenylimidazo[1,2-a]pyrazin-3-yl}benzamide] is 8.4-fold lower in IC50: 26.8 nM for the first, 3.2 nM for the second.

Compared with `CC(C)CNc1nc(-c2ccc(N(C)C)cc2)cn2c(-c3ccc(C(=O)NC4CC4)c(Cl)c3)cnc12` [Example 1-94, 2-chloro-N-cyclopropyl-4-{6-[4-(dimethylamino)phenyl]-8-[(2-methyl-propyl)amino]imidazo [1,2-a]pyrazin-3-yl} benzamide], `CC(=O)c1ccc(-c2cn3c(-c4ccc(C(=O)NC5CC5)cc4)cnc3c(NCC(C)C)n2)cc1` [Example 1-48, 4-{6-(4-acetylphenyl)-8-[(2-methylpropyl)amino]imidazo[1,2-a]pyrazin-3-yl}-N-cyclopropyl-benzamide] is 18-fold lower in IC50: 19.8 nM for the first, 1.1 nM for the second.

Going from `Cn1cc(CNc2nc(-c3ccccc3)cn3c(-c4ccc(C(=O)NC5CC5)cc4)cnc23)cn1` [Example 2-56, N-cyclopropyl-4-(8-{[(1-methyl-1H-pyrazol-4-yl)methyl]amino}-6-phenylimidazo[1,2-a]pyrazin-3-yl)benzamide] to `O=C(NC1CC1)c1ccc(-c2cnc3c(NCc4ccoc4)nc(-c4ccccc4)cn23)cc1` [Example 2-76, N-cyclopropyl-4-{8-[(3-furylmethyl)amino]-6-phenylimidazo[1,2-a]pyrazin-3-yl}benzamide], the IC50 rises from 1.3 nM to 2.8 nM (2.2-fold). The first is the more potent here.

Going from `NS(=O)(=O)c1ccc(CCNc2nc(-c3ccccc3)cn3c(-c4ccc(C(=O)NC5CC5)cc4)cnc23)cc1` [Example 2-21, N-cyclopropyl-4-(6-phenyl-8-{[2-(4-sulfamoylphenyl)ethyl]amino}imidazo[1,2-a]pyrazin-3-yl)benzamide] to `NS(=O)(=O)CCNc1nc(-c2ccccc2)cn2c(-c3ccc(C(=O)NC4CC4)cc3)cnc12` [Example 2-64, N-cyclopropyl-4-{6-phenyl-8-[(2-sulfamoylethyl)amino]imidazo[1,2-a]pyrazin-3-yl} benzamide], the IC50 falls from 9.1 nM to 1 nM (9.1-fold). The second is the more potent here.

Compared with `O=C(NC1CC1)c1ccc(-c2cnc3c(NCc4ccccc4F)nc(-c4ccccc4)cn23)cc1` [Example 2-13, N-cyclopropyl-4-{8-[(2-fluorobenzyl)amino]-6-phenylimidazo[1,2-a]pyrazin-3-yl}benzamide], `O=C(NC1CC1)c1ccc(-c2cnc3c(NCc4ccccn4)nc(-c4ccccc4)cn23)cc1` [Example 2-27, N-cyclopropyl-4-{6-phenyl-8-[(pyridin-2-ylmethyl)amino]imidazo[1,2-a]pyrazin-3-yl} benzamide] is 2.4-fold higher in IC50: 1.4 nM for the first, 3.3 nM for the second. The first is the more potent here.

First: CC(C)CNc1nc(-c2ccc(N3CCNCC3)cc2)cn2c(-c3ccc(C(=O)NC4CC4)cc3)cnc12 [Example 1-89, N-cyclopropyl-4-{8-[(2-methylpropyl)amino]-6-[4-(piperazin-1-yl)phenyl]imidazo[1,2-a]pyrazin-3-yl}benzamide]
Second: CC(C)CNc1nc(-c2ccc(OC(F)(F)F)cc2)cn2c(-c3ccc(C(=O)NC4CC4)cc3)cnc12 [Example 1-52, N-cyclopropyl-4-{8-[(2-methylpropyl)amino]-6-[4-(trifluoromethoxy)phenyl]imidazo[1,2-a]pyrazin-3-yl}benzamide]
The IC50 of the first is 16-fold lower: 2 nM for the first, 31.4 nM for the second.

`CCOC(C)CNc1nc(-c2ccccc2)cn2c(-c3ccc(C(=O)NC4CC4)cc3)cnc12` (stereo not shown) [Example 2-57, N-cyclopropyl-4-{8-[(2-ethoxypropyl)amino]-6-phenylimidazo[1,2-a]pyrazin-3-yl}benzamide] and `C[S+]([O-])CCNc1nc(-c2ccccc2)cn2c(-c3ccc(C(=O)NC4CC4)cc3)cnc12` (stereo not shown) [Example 2-48, N-cyclopropyl-4-(8-{[2-(methylsulfinyl)ethyl]amino}-6-phenylimidazo[1,2-a]pyrazin-3-yl)benzamide] are within 1.5-fold of each other in IC50: 2.3 nM for the first, 3.4 nM for the second.

Compared with `CC(C)CNc1nc(-c2ccccc2O)cn2c(-c3ccc(C(=O)NC4CC4)cc3)cnc12` [Example 1-65, N-cyclopropyl-4-{6-(2-hydroxyphenyl)-8-[(2-methylpropyl)amino]imidazo[1,2-a]pyrazin-3-yl}benzamide], `Cc1ccccc1-c1cn2c(-c3ccc(C(=O)NC4CC4)cc3)cnc2c(NCC(C)C)n1` [Example 1-19, N-cyclopropyl-4-{6-(2-methylphenyl)-8-[(2-methylpropyl)amino]imidazo[1,2-a]pyrazin-3-yl}benzamide] is 5.7-fold lower in IC50: 8.5 nM for the first, 1.5 nM for the second. The second is the more potent here.

Going from `O=C(NC1CC1)c1ccc(-c2cnc3c(NCc4ccc(C(F)(F)F)cc4)nc(-c4ccccc4)cn23)cc1` [Example 2-20, N-cyclopropyl-4-(6-phenyl-8-{[4-(trifluoromethyl)benzyl]amino}imidazo[1,2-a]pyrazin-3-yl)benzamide] to `CC(C)CNc1nc(-c2ccccc2Oc2ccccc2)cn2c(-c3ccc(C(=O)NC4CC4)cc3)cnc12` [Example 1-64, N-cyclopropyl-4-{8-[(2-methylpropyl)amino]-6-(2-phenoxyphenyl)imidazo[1,2-a]pyrazin-3-yl}benzamide], the IC50 rises from 38.6 nM to 74.3 nM (1.9-fold).

Going from `CC(C)(O)CNc1nc(-c2cc(F)c(F)c(F)c2)cn2c(-c3ccc(C(=O)NC4CC4)cc3)cnc12` [Example 1-134, N-cyclopropyl-4-{8-[(2-hydroxy-2-methyl-propyl)amino]-6-(3,4,5-trifluorophenyl)imidazo[1,2-a]pyrazin-3-yl} benzamide] to `Cc1cc(-c2cnc3c(NCCC4CC4)nc(-c4ccc(F)cc4)cn23)ccc1C(=O)NC1CC1` [Example 10-10, N-cyclopropyl-4-{8-[(2-cyclopropylethyl)amino]-6-(4-fluorophenyl)imidazo [1,2-a]pyrazin-3-yl}-2-methylbenzamide], the IC50 falls from 31.5 nM to 16.6 nM (1.9-fold). The second is the more potent here.

For `CC(C)CNc1nc(-c2ccccc2)c(Br)n2c(-c3ccc(C(=O)NC4CC4)cc3)cnc12` [Example 4-1, 4-{5-bromo-8-[(2-methylpropyl)amino]-6-phenylimidazo[1,2-a]pyrazin-3-yl}-N-cyclopropylbenzamide], the IC50 was 26.2 nM.
